Test results as given in ChEMBL document CHEMBL4706603, “Discovery of VEGFR-2 inhibitors exerting significant anticancer activity against CD44+ and CD133+ cancer stem cells (CSCs): Reversal of TGF-β induced epithelial-mesenchymal transition (EMT) in hepatocellular carcinoma” (Eur J Med Chem, 2020).
Activity calls are given as the source filed them. No cut-off for these calls is given here.

Columns and labels:
[1] = Toxicity in Wistar rat assessed as normal liver parenchyma with normal hepatocytes arranged in hepatic strands and normal vascular tissue and bile duct without inflammatory or pathological changes at 2000 mg/kg, po and measured on day 15 by microscopic analysis; assay type: organism-based; details: in vivo, 360 h, time 15 day
[2] = system: HepG2; experiment: Induction of apoptosis in human HepG2 cells assessed as early apoptotic cells by measuring yellowish green coloured nucleus at IC50 incubated for 24 hrs by EtBr/AO staining based fluorescence microscopic analysis; assay type: functional, cell-based
[3] = Inhibition of VEGF expression in human HUVEC assessed as mean fluorescence intensity at IC50 incubated for 48 hrs by FITC based flow cytometry analysis (reference value: 53.91+/- 0.95); assay type: functional
[4] = system: HepG2; experiment: Induction of apoptosis in human HepG2 cells assessed as blebbing of nucleus by measuring orange coloured fluorescence at IC50 incubated for 24 hrs by EtBr/AO staining based fluorescence microscopic analysis; assay type: functional, cell-based
[5] = Inhibition of VEGFR2 expression in human HUVEC assessed as mean fluorescence intensity at IC50 incubated for 48 hrs by fluorescence microscopic analysis (reference value: 1.448 +/- 0.01); assay type: functional
[6] = Toxicity in Wistar rat assessed as normal histoarchitecture of alveoli and bronchi in lungs without inflammatory or pathological changes at 2000 mg/kg, po and measured on day 15 by microscopic analysis; assay type: organism-based; details: in vivo, 360 h, time 15 day
[7] = AUC (0 to 72 hrs) in Wistar rat at 5 mg/kg, po measured upto 72 hrs by HPLC-MS analysis; assay type: ADME, organism-based; design: route oral, dose 5 mg/kg, time <=72; details: in vivo
[8] = system: HepG2; experiment: Induction of ROS production in human HepG2 cells at IC50 incubated for 3 hrs by fluorescence microscopic analysis; assay type: functional, cell-based
[9] = system: MDA-MB-231; experiment: Induction of apoptosis in human MDA-MB-231 cells assessed as late apoptotic cells at IC50 incubated for 72 hrs by Alexa Fluor488-annexin V/PI staining based flow cytometric analysis (Rvb= 0.0 %); assay type: functional
[10] = system: HepG2; experiment: Induction of DNA damage in human HepG2 cells assessed as increase in length of comet tail with decrease in nuclear DNA content with complete DNA damage at IC50 incubated for 24 hrs by Comet assay; assay type: functional, cell-based
[11] = AUMC (0 to infinity) in Wistar rat at 5 mg/kg, po by HPLC-MS analysis; assay type: ADME, organism-based; details: in vivo
[12] = system: Chorioallantoic membrane; experiment: Antiangiogenic activity in chicken fertilized egg chorioallantoic membrane assessed as reduction in membrane growth at 0.01 uM measured upto 72 hrs by CAM assay relative to control; assay type: functional, tissue-based; details: Gallus gallus, time hrs <=72
[13] = system: HepG2; experiment: Cytotoxicity against human HepG2 cells assessed as reduction in cell viability incubated for 24 hrs by MTT assay; assay type: functional, cell-based
[14] = system: MDA-MB-231; experiment: Induction of apoptosis in human MDA-MB-231 cells assessed as necrotic cells at IC50 incubated for 72 hrs by Alexa Fluor488-annexin V/PI staining based flow cytometric analysis (Rvb= 0.0 %); assay type: functional
[15] = system: MDA-MB-231; experiment: Induction of apoptosis in human MDA-MB-231 cells assessed as viable cells at IC50 incubated for 72 hrs by Alexa Fluor488-annexin V/PI staining based flow cytometric analysis (Rvb= 99.4 %); assay type: functional
[16] = Tmax in Wistar rat at 5 mg/kg, po measured upto 72 hrs by HPLC-MS analysis; assay type: ADME, organism-based; details: in vivo
[17] = Toxicity in Wistar rat assessed as effect on SGOT level at 5 to 2000 mg/kg, po and measured on day 15; assay type: organism-based; details: in vivo, 360 h, dose 5-2000 mg/kg, time 15 day
[18] = system: HepG2; experiment: Induction of apoptosis in human HepG2 cells assessed as late apoptotic cells by measuring green fluorescence membrane with fragmented red nucleus at IC50 incubated for 24 hrs by Alexa Fluor488-annexin V/PI staining based fluorescence analysis; assay type: functional, cell-based
[19] = Toxicity in female Wistar rat assessed as roughened fur at 2000 mg/kg, po observed for 48 hrs; assay type: organism-based; details: in vivo
[20] = system: HepG2; experiment: Induction of cell cycle arrest in human HepG2 cells harboring CD133+ assessed as increase in S phase arrest at IC50 concentration incubated for 48 hrs by PI staining based flow cytometry analysis; assay type: functional
[21] = Toxicity in po dosed Wistar rat; assay type: organism-based; details: in vivo
[22] = system: HepG2; experiment: Induction of apoptosis in human HepG2 cells assessed as late apoptotic cells by measuring orange coloured nucleus at IC50 incubated for 24 hrs by EtBr/AO staining based fluorescence microscopic analysis; assay type: functional, cell-based
[23] = Toxicity in Wistar rat assessed as effect on relative weight of heart at 5 to 2000 mg/kg, po and measured on day 15; assay type: organism-based; details: in vivo, 360 h, dose 5-2000 mg/kg, time 15 day
[24] = Inhibition of VEGFR2 expression in human HUVEC at IC50 incubated for 48 hrs by fluorescence microscopic analysis relative to control; assay type: functional
[25] = Toxicity in Wistar rat assessed as effect on food consumption at 5 to 2000 mg/kg, po and observed for 14 days; assay type: organism-based; details: in vivo, 336 h, dose 5-2000 mg/kg, time 14 day
[26] = system: HUVEC; experiment: Antiproliferative activity against human HUVEC assessed as reduction in cell viability incubated for 24 hrs by MTT assay; assay type: functional, cell-based
[27] = system: Chorioallantoic membrane; experiment: Antiangiogenic activity in chicken fertilized egg chorioallantoic membrane measured upto 72 hrs by CAM assay; assay type: functional, tissue-based; details: Gallus gallus, dose 0.01-2 µM, time hrs <=72
[28] = system: HepG2; experiment: Induction of cell cycle arrest in human HepG2 cells harboring CD44+ assessed as increase in G0/G1 phase arrest at IC50 concentration incubated for 48 hrs by PI staining based flow cytometry analysis; assay type: functional
[29] = Toxicity in Wistar rat assessed as effect on body weight at 5 to 300 mg/kg, po and observed for 14 days; assay type: organism-based; details: in vivo, 336 h, dose 5-300 mg/kg, time 14 day
[30] = Toxicity in Wistar rat assessed as effect on SGPT level at 5 to 2000 mg/kg, po and measured on day 15; assay type: organism-based; details: in vivo, 360 h, dose 5-2000 mg/kg, time 15 day
[31] = Toxicity in Wistar rat assessed as normal splenic tissue with normal red and white pulp with lymphoid cellular population at 2000 mg/kg, po and measured on day 15 by microscopic analysis; assay type: organism-based; details: in vivo, 360 h, time 15 day
[32] = Toxicity in Wistar rat assessed as effect on urea level in serum at 5 to 2000 mg/kg, po and measured on day 15; assay type: organism-based; details: in vivo, 360 h, dose 5-2000 mg/kg, time 15 day
[33] = Toxicity in Wistar rat assessed as mortality of organism at 5 to 2000 mg/kg, po and observed for 14 days; assay type: organism-based; details: in vivo, 336 h, dose 5-2000 mg/kg, time 14 day
[34] = Toxicity in Wistar rat assessed as effect on total bilirubin level in serum at 5 to 2000 mg/kg, po and measured on day 15; assay type: organism-based; details: in vivo, 360 h, dose 5-2000 mg/kg, time 15 day
[35] = Toxicity in Wistar rat assessed as effect on relative weight of spleen at 5 to 2000 mg/kg, po and measured on day 15; assay type: organism-based; details: in vivo, 360 h, dose 5-2000 mg/kg, time 15 day
[36] = system: HepG2; experiment: Induction of mitochondrial membrane potential disruption in human HepG2 cells assessed as green fluorescence at IC50 incubated for 24 hrs by JC-10 staining based fluorescence assay; assay type: functional, cell-based
[37] = Toxicity in female Wistar rat assessed as difficult to breathe at 2000 mg/kg, po observed for 48 hrs; assay type: organism-based; details: in vivo
[38] = Toxicity in female Wistar rat assessed as periodic body stretching at 2000 mg/kg, po observed for 48 hrs; assay type: organism-based; details: in vivo

## CC(=O)Nc1ccc(Oc2cccc3c(NC(=O)Nc4cccc(C(F)(F)F)c4)cccc23)cc1
[1]
  Activity: Non-Toxic
[2]
  Activity: Active
[3]
  Flu intensity: 21.41
[4]
  Activity: Active
[5]
  Flu intensity: 1
[6]
  Activity: Non-Toxic
[7]
  AUC(0-t): 621 µg·h/mL
[8]
  Activity: Active
[9]
  Activity: 4.3%
[10]
  Activity: Active
[11]
  AUMC: 8929.284 ug/ml.hr^2
[12]
  inhibition: > 50%
[13]
  inhibition: Dose-dependent effect
[13]; HepG2, 24 h
  IC50: 0.258 µM
[14]
  Activity: 0.3%
[15]
  Activity: 27.3%
[16]
  Tmax: 6 h
[17]
  Activity: Non-Toxic
[18]
  Activity: Active
[19]
  Activity: Toxic
[20]
  Activity: Active
[21]
  LD50: > 2000 mg/kg
[22]
  Activity: Active
[23]
  Activity: Non-Toxic
[24]
  fold change (FC): 0.37
[25]
  Activity: Non-Toxic
[26]
  IC50: 9.64 µM
  inhibition: Dose-dependent effect
[27]
  Activity: Dose-dependent effect
[28]
  Activity: Active
[29]
  Activity: Non-Toxic
[30]
  Activity: Non-Toxic
[31]
  Activity: Non-Toxic
[32]
  Activity: Non-Toxic
[33]
  Activity: Non-Toxic
[34]
  Activity: Non-Toxic
[35]
  Activity: Non-Toxic
[36]
  Activity: Active
[37]
  Activity: Toxic
[38]
  Activity: Toxic
